Measurements reported in US20100216724A1, “USE OF F[…] (196-203 ) AS A […] AGENT” (priority 2007, published 2010).
Where no end group is shown, it is not given here.

Test system: drug-resistant Mycobacterium tuberculosis
Conditions: drug-resistant Mycobacterium tuberculosis growth; peptide 10 micrograms per ml; seven days

## SRNRCNDQ-NH2
  % inhibition: 0.0%
